What was measured:
[1] = test system: renal cancer UO-31 cell line; assay: MTT anti-proliferative assay; type: cell-based; conditions: Homo sapiens, mean ± S.D. of three separate experiments
Experimental: Staurosporine was adopted in the experiment as a reference anticancer drug.
Renal cancer UO-31 cell line was obtained from American Type Culture Collection (ATCC). UO-31 cells were seeded into 96-well plates at 1.8 x 10^4/well. Cells were grown in DMEM, and supplemented with 10% heat-inactivated fetal bovine serum, 1% L-glutamine (2.5 mM), HEPES buffer (10 mM), 50 μg/mL gentamycin.

UO-31 cells [2] = assay: cell cycle analysis, DNA flow cytometry; type: cell-based, human; conditions: UO-31, at IC50 concentration, 24 h
Experimental: The effect of diamide-based benzenesulfonamides 5a and 5h on cell cycle progression was examined in renal UO-31 cancer cells, through a DNA flow cytometric assay (Figure 3).
Then, the treated cells were collected by centrifugation, fixed in ice-cold 70% (v/v) ethanol, washed with PBS, re-suspended with RNase (100 μg/mL), stained with PI (40 μg/mL), and analyzed by flow cytometry using FACS Calibur (Becton Dickinson, BD, USA). The cell cycle distributions were calculated utilizing CellQuest software 5.1 (Becton Dickinson).

UO-31 cells [3] = assay: Annexin V-FITC/PI apoptosis assay; type: cell-based, human; conditions: for late apoptotic cells (UR) / early apoptotic cells (LR): UO-31, annexin V-FITC/PI; for late apoptotic cells (UR): control 0.29%; for early apoptotic cells (LR): control 0.85%
Experimental: To explore whether the anti-proliferative activity of diamide-based sulfonamides 5a and 5h is consistent with the induction of apoptosis within the UO-31 cancer cells, Annexin V-FITC/propidium iodide (AV/PI) dual staining assay was performed by flow cytometry (Figure 4).
Assay of the phosphatidylserine externalization was carried out using Annexin V-FITC/PI apoptosis detection kit (BD Biosciences, San Jose, CA, USA) following the manufacturer’s instructions, as reported previously.

[4] = test system: panel of sixty cancer cell lines; assay: NCI one-dose SRB assay, whole panel; type: cell-based; conditions: Homo sapiens, mean over the panel, 1.00E-5 Molar, read-out: Mean Growth Percent
Experimental: (§1) First, all diamide-based benzenesulfonamides herein reported 5a–h were screened for their antitumor activity at one dose (10^−5 M) assay against a panel of sixty cancer cell lines through the National Cancer Institute (NCI) Developmental Therapeutic Program (www.dtp.nci.nih.gov), according to US-NCI protocol. The cell growth and cell viability were evaluated using the sulforhodamine B (SRB) colorimetric assay.
(§2) This assay was carried out according to the protocol of the Drug Evaluation Branch, NCI, Bethesda. The cell growth and cell viability were evaluated using the sulforhodamine B (SRB) colorimetric assay, as reported earlier.

SR = assay: NCI one-dose SRB assay; type: cell-based, human; conditions: SR (Leukemia), 1.00E-5 Molar
Experimental: as §1, §2

hCA II = hCA II (Homo sapiens, UniProt P00918); assay: stopped-flow CO2 hydrase assay
Source text: (§3) An Applied Photophysics stopped-flow instrument was used for assaying the CA catalysed CO2 hydration activity, as reported earlier [17]. The inhibition constants were obtained by non-linear least-squares methods using PRISM 3 and the Cheng-Prusoff equation as reported earlier, and represent the mean from at least three different determinations. The four tested CA isofoms were recombinant ones obtained in-house as reported earlier [26, 27, 28, 29].

hCA IX = hCA IX (Homo sapiens, UniProt Q16790); assay: stopped-flow CO2 hydrase assay; conditions: for Selectivity ratio I/IX: KI hCA I / KI hCA IX; for Selectivity ratio II/IX: KI hCA II / KI hCA IX
Source text: as §3

BT-549 = assay: NCI one-dose SRB assay; type: cell-based, human; conditions: BT-549 (Breast Cancer), 1.00E-5 Molar
Experimental: as §1, §2

SMILES | IC50 [1] [µM] | arrest in G2-M phase compared to control (UO-31 cells [2]) [fold] | increase in percentage of cells at Sub-G1 compared to control (UO-31 cells [2]) [fold] | late apoptotic cells (UR) (UO-31 cells [3]) [%] | early apoptotic cells (LR) (UO-31 cells [3]) [%] | activity at 10 µM [4] [%] | Growth Percent (SR) [%] | melting point [°C] | Ki (hCA II) [nM] | Ki (hCA IX) [nM] | Selectivity ratio I/IX (hCA IX) | Selectivity ratio II/IX (hCA IX) | Growth Percent (BT-549) [%] | total increase in annexin V-FITC positive apoptotic cells (UR + LR) compared with control (UO-31 cells [3]; UO-31) [fold]
NS(=O)(=O)c1ccc(NC(=O)C(=Cc2ccc(Cl)cc2)NC(=O)c2ccccc2)cc1 [Compound 5a, N-(1-(4-Chlorophenyl)-3-oxo-3-((4-sulfamoylphenyl)amino)prop-1-en-2-yl)benzamide] | 6.53 ± 0.38 | 2.2 | 14 | 22.96 | 2.64 | 100 | 96.44 | 255 to 258 | 68.3 | 8.8 | 449.5 | 7.8 |  | 
NS(=O)(=O)c1ccc(NC(=O)C(=Cc2ccc(Cl)cc2Cl)NC(=O)c2ccccc2)cc1 [Compound 5b, N-(1-(2,4-Dichlorophenyl)-3-oxo-3-((4-sulfamoylphenyl)amino)prop-1-en-2-yl)benzamide] | 16.7 ± 0.92 |  |  |  |  | 97 | 96.62 | 265 to 267 | 224 | 18.3 | 326.6 | 12.2 | 89.13 | 
NS(=O)(=O)c1ccc(NC(=O)C(=Cc2ccc(Br)cc2)NC(=O)c2ccccc2)cc1 [Compound 5c, N-(1-(4-Bromophenyl)-3-oxo-3-((4-sulfamoylphenyl)amino)prop-1-en-2-yl)benzamide] |  |  |  |  |  | 97.3 | 88.11 | 210 to 212 | 252 | 33.5 | 71.6 | 7.5 |  | 
Cc1ccc(C=C(NC(=O)c2ccccc2)C(=O)Nc2ccc(S(N)(=O)=O)cc2)cc1 [Compound 5d, N-(3-Oxo-3-((4-sulfamoylphenyl)amino)-1-(p-tolyl)prop-1-en-2-yl)benzamide] |  |  |  |  |  | 102 | 85.23 | 255 to 258 | 94.4 | 62.1 | 12.8 | 1.5 | 105.04 | 
COc1ccc(C=C(NC(=O)c2ccccc2)C(=O)Nc2ccc(S(N)(=O)=O)cc2)cc1 [Compound 5e, N-(1-(4-Methoxyphenyl)-3-oxo-3-((4-sulfamoylphenyl)amino)prop-1-en-2-yl)benzamide] |  |  |  |  |  | 103 | 88.45 |  | 128 | 78 | 12.9 | 1.5 |  | 
COc1ccc(C=C(NC(=O)c2ccccc2)C(=O)Nc2ccc(S(N)(=O)=O)cc2)c(OC)c1 [Compound 5f, N-(1-(2,4-Dimethoxyphenyl)-3-oxo-3-((4-sulfamoylphenyl)amino)prop-1-en-2-yl)benzamide] |  |  |  |  |  | 103 | 95.41 | 245 to 250 | 294 | 73.7 | 69.9 | 4 |  | 
COc1ccc(C=C(NC(=O)c2ccccc2)C(=O)Nc2ccc(S(N)(=O)=O)cc2)cc1OC [Compound 5g, N-(1-(3,4-Dimethoxyphenyl)-3-oxo-3-((4-sulfamoylphenyl)amino)prop-1-en-2-yl)benzamide] |  |  |  |  |  | 103 | 82.62 | 250 to 253 | 448 | 123 | 17.9 | 3.6 |  | 
Cc1ccc(C=C(NC(=O)c2ccccc2)C(=O)Nc2ccc(S(N)(=O)=O)cc2)o1 [Compound 5h, N-(1-(5-Methylfuran-2-yl)-3-oxo-3-((4-sulfamoylphenyl)amino)prop-1-en-2-yl)benzamide] | 4.89 ± 0.22 | 2.5 | 15.5 | 21.85 | 8.41 | 94.6 |  | 240 to 243 | 115 | 8.3 | 985 | 13.8 |  | 26.5
